Series [1] concerns male Fischer 344 rats. The experiment in a line: Anesthetic properties on inhalation, halothane vs deuterated analogue (Example 2). The class given is in vivo. The conditions noted are these: 0.75 volume/volume, 2 hours. On the procedure: (§1) Three groups of 6 male Fischer 344 rats (6 months of age, 200-300 grams) were exposed to room air and 0.75 volume/volume halothane or the deuterated analogue for a period of 2 hours. Following exposure, all animals were maintained for 72 hours. […] The serum inorganic bromide concentration was determined using a specific ion electrode (Orion).

In series [2] the test system is liver. The experiment in a line: SGPT as indication of liver toxicity after anesthesia with halothane and deuterated halothane (Example 4). Format: in vivo, Fischer 344 rats. The conditions noted are these: 1 percent (v/v) in air, two hours; for SGPT levels, comparison with the control: 24 hours; for SGPT: blood collected after 24 hours, control 18.8. The procedure: (§2) Appl. Pharmacol., 9, 139-151 (1966), which used the serum glutamic-pyruvic transaminase (SGPT) level as an indicator of liver damage.
Using the same techniques as described in Example 3 above, Fischer 344 rats were anesthetized for two hours with halothane and deuterated halothane using an anesthetic concentration of 1 percent (v/v) in air. After 24 hours, the animals were sacrificed and the blood collected from each. SGPT was run on each blood sample as in indication of liver toxicity.

Series [3] deals with liver. The conditions noted are these: cited from earlier work; for damage to the liver: literature: Anesth. 45, 622 (1976) and 43, 392 (1975).
Series [4] relates to liver. The experiment in a line: Relative hepatotoxicity of chloroform: serum glutamic-pyruvic transaminase (SGPT) level as indicator of liver damage after inhalation (Example 3). Format: in vivo, male Fischer 344 rats. The conditions noted are these: 0.36 percent (v/v); for SGPT level: inhaled two hours, blood collected after 24 hours, room air control 24.8 mμ/ml ± 2, groups of 10.
From the text: as §2

In series [5] the test system is male Fischer 344 rats. The conditions noted are these: 0.36 percent (v/v), two hours. On the procedure:
Halothane and deuterated halothane were vaporized by metering the liquid compounds at a controlled rate into a temperature regulated vaporization flask held at 150° C. The vapor was swept into the air inlet of a 30 liter glass exposure chamber at a rate of 6 liters/minute. The concentration of the anesthetic in the exposure chamber was monitored by gas-liquid chromatography using direct gas sampling loops.
Using the same equipment to expose the animals as that of Example 2, three groups of 10 male Fischer 344 rats were exposed to room air, 0.36 percent (v/v) chloroform and 0.36 percent (v/v) deuterated chloroform for two hours. The animals were maintained two to a cage for 24 hours following the exposure. At the end of this period, the animals were decapitated and blood was collected in plastic centrifuge tubes and allowed to clot. The SGPT levels were determined using a commercially available method. SGPT concentrations of each group of animals were compared with the other groups by nonparametric analysis of variance.

Series [6] can be described thus: Serum inorganic bromide concentration 72 hours after inhalation exposure. The conditions noted are these: 0.75 volume/volume, inhaled 2 hours, analysis of variance. Format: in vivo, male Fischer 344 rats. On the procedure: as §1

Data on four compounds can be found in patent US4069346A, “Compositions and methods for anesthetizing an animal using deuterated analogues of halothane and chloroform” (The Dow Chemical Company, priority 1977, dated 1978).

SMILES strings stand for the structures.

For `[2H]C(Cl)(Br)C(F)(F)F` (stereo not drawn) [deuterated halothane, 2-bromo-2-chloro-1,1,1-trifluoroethane-d], the “anesthetic properties, difference between halothane and the deuterated analogue” value in the series with male Fischer 344 rats [1] is on record as “No difference in anesthetic properties”. In addition, in the series with liver [2], the “SGPT levels, comparison with the control” value was “not significantly different from the control” and the SGPT amounted to 19.6 mμ/ml.
Turning to `ClC(Cl)Cl` [chloroform], the “damage to the liver” value in the series with liver [3] is “in some instances they cause damage to the liver”. Moreover, the SGPT level with liver [4] is listed as 56.3 mμ/ml. Also, the “anesthetic properties, difference between chloroform and deuterated chloroform” value with male Fischer 344 rats [5] was “no difference in the anesthetic properties”.
For the compound `FC(F)(F)C(Cl)Br` (stereo not drawn) [halothane, 2-bromo-2-chloro-1,1,1-trifluorethane], the “damage to the liver” value in the series with liver [3] is recorded as “in some instances they cause damage to the liver”. Moreover, the “inorganic bromide in the blood” value in the series on liver [3] (literature: Anesthes. 44, 194 (1976)) is reported as “elevation of inorganic bromide in the blood”. Further, the “anesthetic properties, difference between halothane and the deuterated analogue” value in the series on male Fischer 344 rats [1] was “No difference in anesthetic properties”. Also, the “serum bromide levels, comparison of halothane with deuterated halothane” value in series [6] was “significantly higher than those treated with deuterated halothane, p<0.01”. In the series with liver [2], the “SGPT levels, comparison with the control” value is listed as “significant increase in SGPT levels” and the SGPT came to 24.0 mμ/ml.
In the case of `[2H]C(Cl)(Cl)Cl` [deuterated chloroform], the SGPT level in the series on liver [4] was determined as 38.3 mμ/ml. Also, the “SGPT level, difference between chloroform and deuterated chloroform treated groups” value with liver [4] (two hours, 24 hours, nonparametric analysis of variance) is given as “significant at p<0.05”. Further, in the series with male Fischer 344 rats [5], the “anesthetic properties, difference between chloroform and deuterated chloroform” value is recorded as “no difference in the anesthetic properties”.
